Several values for one entry are separate records, joined by “and”; a condition that tells them apart may be missing. Equal entries are not always repeated.
Legend:
HEK293a SHH+ cells = assay: MTS assay, cytotoxicity (72 h); type: cell-based; settings: for decrease in cell viability / cell survival: 12.5 μM
Protocol: (§1) The survival of HEK293a SHH^+ cells is independent of HH signaling,[35] therefore, the cytotoxicity of analogues was tested using the MTS assay to investigate off-target toxicity. In this assay, HEK293a SHH^+ cells were treated with DMSO vehicle or varying concentrations of analogues for 72 h. Subsequently, a mixture of 1-methoxy phenazine methosulfate (PMS) and [3-(4,5-dimethylthiazol-2-yl)-5-(3-carboxymethoxyphenyl)-2-(4-sulfophenyl)-2H-tetrazolium] (MTS) was added to enable quantification of cell number via colorimetric analysis. […] Compounds 3, 17, 19, 32, 34, 38, and 45, which all contain a 2-((2-methylbutyl)amino)acetyl, were toxic to HEK293a SHH^+ cells, as were ureas 26, 40, and 41.
(§2) HEK293a SHH^+ cells were plated at 5000 cells/well in a 96-well plate (Nunc) using a volume of 50 μL/well and cultured for 24 h as described. Cells were treated with 100 μL/well of either DMSO vehicle, Puromycin (2 μg/mL), or stated analogues (0.14–100 μM final) in DMEM supplemented with 10% FBS. After 72 h, 20 μL/well of a mixture of 1-methoxy phenazine methosulfate (PMS) and [3-(4,5-dimethylthiazol-2-yl)-5-(3-carboxymethoxyphenyl)-2-(4-sulfophenyl)-2H-tetrazolium] (MTS) at a ratio of MTS/PMS = 2/0.92 mg/mL in PBS was added and the plates were incubated for 3 h at 37 °C. Subsequently, the absorption at 490 nm was recorded using an EnVision Xcite 2104 (PerkinElmer), and the response was normalized to vehicle control and Puromycin treated samples. Dose response curves were fitted to a “sigmoidal dose response (variable slope)” model using GraphPad Prism 5 (GraphPad Software, Inc.).

[1] = MTS assay, cytotoxicity (72 h); type: cell-based; settings: human, HEK293a SHH+ cells, 72 h; for CC50 at 72 h: read-out: MTS Assay (HEK293a SHH+) CC50 (CI95)
Protocol: as §1, §2

purified HHAT = molecular target: T1, purified HHAT (Homo sapiens, UniProt Q5VTY9); assay: Acyl-cLIP assay, inhibition of purified HHAT; type: biochemical; settings: for LLEAcyl-cLIP: from Acyl-cLIP IC50 and clogDpH7.4; for IC50: purified HHAT, read-out: Acyl-cLIP Assay IC50 (CI95)
T1 construct: made in house
Protocol: The inhibitory potency of all 50 compounds against purified HHAT was quantified using the acylation-coupled lipophilic induction of polarization (acyl-cLIP) assay recently developed in our lab, a universally applicable assay for high-throughput analysis of protein–lipid transferases and hydrolases.[31],[40] In brief, in this assay a fluorescently labeled peptide based on the N-terminal sequence of SHH is incubated with N-dodecyl β-D-maltoside (DDM) solubilized purified HHAT, palmitoyl-CoA, and HHAT inhibitors. Binding of the lipidated peptide product to the DDM micelle results in decreased tumbling rate and an increase in polarization of fluorescence emission, enabling facile quantification of HHAT activity. Initially, % HHAT inhibition was determined at 50 μM and 25 μM for all analogues. […] HHAT is a 12-pass TM protein,[14] and we considered whether lipophilicity might bias inhibition; pIC50 values were compared to calculated log D, which indicated no significant correlation (SI, Table S1 and Figure S2). We concluded that lipophilicity is not a general driver of HHAT inhibitory potency.
The acyl-cLIP assay has been described previously.[40] Briefly, SHH-FAM peptide was diluted in buffer A (100 mM MES, 20 mM NaCl, 1 mM DTT, 1 mM TCEP, 0.1% BSA, pH 6.5) to a concentration of 2 μM. Palmitoyl-CoA (Sigma-Aldrich) was diluted in buffer A to 7.5 μM and recombinant HHAT (obtained by following the published protocol[14]) in buffer B (20 mM HEPES, 350 mM NaCl, 1% DDM, 5% glycerol, pH 7.3) diluted to 44 μg/mL. 1.5 μL of a 50 mM inhibitor DMSO stock was diluted with 18.5 μL of DMSO and further serial diluted (1:1). For each condition, 6 μL of the HHAT working stock and […] of the SHH-peptide working stock were mixed with 3 μL of the corresponding inhibitor concentration or DMSO vehicle. Twelve μL/well of this mixture was split into four wells of a black 384 well plate. To start the reaction, 8 μL of the Pal-CoA working stock were added to each well and fluorescence anisotropy and the total fluorescence recorded on an EnVision Xcite 2104 (PerkinElmer) over 30 min (emission filter 1 = FITC FP P-pol 535; emission filter 2 = FITC S-pol 535; excitation filter: FITC FP 480; measurement height = 6.5 mm; detector gain = 0; high concentration gain). Initial rate constants were determined by linear regression and normalized to DMSO control and samples with buffer B instead of HHAT. IC50 values were extracted from the corresponding dose response curves using a “sigmoidal dose response (variable slope)” model in GraphPad Prism 5 (GraphPad Software, Inc.).

[2] = system: HH signaling (HEK293a SHH+ conditioned media on SHH-Light2 cells); assay: Light2 dual-luciferase cell-based HH signaling assay (Firefly); settings: Firefly luciferase, Light2 cells; read-out: HH signaling inhibition EC50 (CI95)
Protocol: Subsequently, the effect of analogues on HH signaling was investigated using a cellular luciferase reporter assay. Light2 cells derived from NIH3T3 cells constitutively express Renilla luciferase as an internal control for cell density alongside Firefly luciferase under the control of a HH-responsive Gli promoter.[43] HEK293a SHH^+ cells were incubated with varying inhibitor concentrations and SHH-containing conditioned media transferred to the NIH3T3-Light2 cells to mimic paracrine signaling[30],[35] (Figure 6A).
The Light2 cell-based signaling assay has been described previously.[35] Briefly, HEK293a SHH^+ cells were plated at 120,000 cells/well of a 12-well plate in a volume of 1 mL/well and cultured as described above. After 24 h, cells were washed with PBS, followed by addition of 1 mL of media containing 0.2% DMSO or varying inhibitor concentrations in DMSO (0.041–30 μM final). Additionally, SHH-Light2 cells were plated at 20,000 cells/well of a 96-well plate in 50 μL media. After another 24 h, 300 μL of the conditioned media were collected from each well of the treated HEK293a SHH^+ cells, centrifuged at 1000g for 10 min to remove detached cells and split into three wells of the SHH-Light2 cells (100 μL/well; 150 μL final volume in each well). The treated Light2 cells were cultured for another 48 h and subsequently washed with PBS. Firefly and Renilla luciferase activity was measured using the Dual-Luciferase reporter system (Promega Corporation, USA). Then 20 μL of 1× passive lysis buffer were added to each well. After 30 min at RT, 5 μL of each lysate were transferred to a white opaque 96-well plate. Then 20 μL/well of luciferase assay reagent II was added and the luminescence immediately recorded using a SpectraMax i3x plate reader (Molecular Devices LLC). Subsequently, 20 μL/well of 1× Stop&Glo substrate in Stop&Glo buffer was added and the luminescence immediately recorded for a second time. Data was evaluated using a “sigmoidal dose response (variable slope)” model in GraphPad Prism 5 (GraphPad Software, Inc.). The luminescence signal of the Firefly luciferase was normalized to the DMSO vehicle (100%) and the unconditioned media (0%) controls.

[3] = PAMPA parallel artificial membrane permeability assay; settings: for recovery at 16 h, 10 µM / Papp at 16 h, 10 μM: PAMPA
Protocol: Passive diffusion was estimated using the PAMPA method. […] The donor plate was a MultiScreen-IP Plate with 0.45 μm hydrophobe Immobilon-P Membrane (Millipore, #MAIPNTR10) and the acceptor plate was a MultiScreen 96-well Transport Receiver Plate (Millipore, #MATRNPS50). […] Acceptor pH was 7.4. All samples were analyzed against an external, matrix-matched, standard curve by LC-MS/MS with a Waters (Elstree, Herts. UK) Acquity H-class LC system coupled to a Waters TQ-S mass spectrometer. Permeability values (cm/s) were calculated using the following equation: [drawing 2] and VD = volume of donor; VA = volume of acceptor; area = surface area of the membrane · porosity.

[4] = pH 5, PAMPA Papp pH 5, donor pH 5, 10 µM
[5] = pH 5, PAMPA Permeability Class pH 5, donor pH 5, 10 µM

T1 sequence (Q5VTY9 whole entry): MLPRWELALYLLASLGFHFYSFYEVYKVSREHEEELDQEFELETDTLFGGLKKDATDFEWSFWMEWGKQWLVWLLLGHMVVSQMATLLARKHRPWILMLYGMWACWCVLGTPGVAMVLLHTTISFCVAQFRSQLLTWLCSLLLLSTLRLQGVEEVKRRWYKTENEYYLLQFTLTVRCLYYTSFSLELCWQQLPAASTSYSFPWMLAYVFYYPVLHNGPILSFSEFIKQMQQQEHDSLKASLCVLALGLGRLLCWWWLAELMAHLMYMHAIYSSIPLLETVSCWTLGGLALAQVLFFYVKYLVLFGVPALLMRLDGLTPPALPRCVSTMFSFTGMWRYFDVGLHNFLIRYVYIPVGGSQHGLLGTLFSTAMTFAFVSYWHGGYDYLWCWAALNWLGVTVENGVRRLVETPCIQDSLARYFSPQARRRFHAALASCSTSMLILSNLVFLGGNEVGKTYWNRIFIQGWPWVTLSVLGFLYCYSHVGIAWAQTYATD

SMILES	toxicity to HEK293a SHH+ cells (HEK293a SHH+ cells)	CC50 at 72 h [1]	viability at 72 h, 12.5 µM [1]	viability at 72 h, 25 µM [1]	inhibition at 25 µM (purified HHAT)	inhibition at 50 µM (purified HHAT)	LLEAcyl-cLIP (purified HHAT)	IC50 (purified HHAT)	EC50 [2]	also measured
CCC(C)CNCC(=O)N1CCc2sccc2C1COc1cccc(C)c1 (stereo not drawn) [Compound 3]	toxic	8.4 µM	31 ± 2%	12 ± 3%	52 ± 3%	63 ± 4%	3.16	1.44 µM		decrease in cell viability / cell survival (HEK293a SHH+ cells): 69%; fold more potent than analogues 19, 32, and 34 (purified HHAT; meta-methyl on 4-position aromatic ring): 2–5 fold
C=CC(=O)N1CCc2sccc2C1c1cccc(C)c1 (stereo not drawn) [Compound 16]		19.8 µM	51 ± 1%	34 ± 3%	51 ± 7%	62 ± 8%	0.66	15 µM	2.96 µM	
CC(=O)N1CCc2sccc2C1c1ccccn1 (stereo not drawn) [Compound 18]		> 100 µM	97 ± 2%	98 ± 2%	49 ± 1%	72 ± 1%	2.73	24 µM and 23.7 µM		decrease in cell viability / cell survival (HEK293a SHH+ cells): < 30%
CC(=O)N1CCc2sccc2C1c1cccc(C)n1 (stereo not drawn) [Compound 21]		> 100 µM	98 ± 4%	94 ± 3%	72 ± 3%	82 ± 3%	2.84	13.4 µM	5.46 µM	
Cc1cccc(C2c3ccsc3CCN2C(=O)CNCCC(C)C)n1 (stereo not drawn) [Compound 25]		15.3 µM	74 ± 2%	27 ± 4%	80 ± 5%	86 ± 4%	3.90	4.62 µM	4.25 µM	
COc1ccccc1C1c2ccsc2CCN1C(C)=O (stereo not drawn) [Compound 31]		16.5 µM	60 ± 4%	23 ± 1%	68 ± 4%	81 ± 2%	2.21	11.9 µM	> 30 µM	
CCC(C)CNCC(=O)N1CCc2sccc2C1c1ccccc1O (stereo not drawn) [Compound 34, 1-(4-(2-Hydroxyphenyl)-6,7-dihydrothieno[3,2-c]pyridin-5(4H)-yl)-2-((2-methylbutyl)amino)ethan-1-one]	toxic	6.1 µM	24 ± 1%	20 ± 1%	92 ± 1%	93 ± 1%	3.35			
CC(C)CCNC(=O)N1CCc2ccccc2C1c1ccccc1 (stereo not drawn) [Compound 40, N-Isopentyl-1-phenyl-3,4-dihydroisoquinoline-2(1H)-carboxamide]	toxic	1.8 µM	14 ± 4%	12 ± 3%	0%	4 ± 5%		> 25 µM		HHAT inhibition in the acyl-cLIP assay (purified HHAT): inactivity
COCCNC(=O)N1CCc2ccccc2C1c1ccccc1 (stereo not drawn) [Compound 41, N-(2-Methoxyethyl)-1-phenyl-3,4-dihydroisoquinoline-2(1H)-carboxamide]	toxic	20.2 µM	83 ± 3%	53 ± 2%	0%	27 ± 3%		> 25 µM		HHAT inhibition in the acyl-cLIP assay (purified HHAT): inactivity
C=CC(=O)N1CCCCC1c1ccccn1 (stereo not drawn) [Compound 49, 1-(2-(Pyridin-2-yl)piperidin-1-yl)prop-2-en-1-one]		> 100 µM	96 ± 2%	89 ± 2%	8 ± 1%	3 ± 1%		> 25 µM		
CCC(C)CNCC(=O)N1CCCCC1c1ccccn1 (stereo not drawn) [Compound 50, 2-((2-Methylbutyl)amino)-1-(2-(pyridin-2-yl)piperidin-1-yl)ethan-1-one]		> 100 µM	88 ± 2%	86 ± 2%	8 ± 1%	3 ± 1%		> 25 µM		
O=c1ccc2ccccc2o1 [Coumarin, reference compound]										recovery at 16 h, 10 µM ([3]; pH 5): 99%; Papp at 16 h, 10 μM [3, 4]: 124 ×10⁻⁶ cm/s; Papp at 16 h, 10 μM [3, 5]: > 20 ×10⁻⁶ cm/s; recovery at 16 h, 10 µM ([3]; pH 6.5): 99%; recovery at 16 h, 10 µM ([3]; pH 7.4): 114%; PAMPA Papp pH 6.5 ([3]; donor pH 6.5, 10 µM): >eqm; PAMPA Permeability Class pH 6.5 ([3]; donor pH 6.5, 10 µM): >eqm; PAMPA Papp pH 7.4 ([3]; donor pH 7.4, 10 µM): >eqm; PAMPA Permeability Class pH 7.4 ([3]; donor pH 7.4, 10 µM): >eqm
CC(C)(C)NCC(O)COc1cccc2c1CC(O)C(O)C2 (stereo not drawn) [Nadolol, reference compound]										recovery at 16 h, 10 µM ([3]; pH 5): 97%; Papp at 16 h, 10 μM [3, 4]: < 0.4 ×10⁻⁶ cm/s; Papp at 16 h, 10 μM [3, 5]: < 5 ×10⁻⁶ cm/s; Papp at 16 h, 10 μM ([3]; pH 6.5, PAMPA Papp pH 6.5, donor pH 6.5, 10 µM): < 0.4 ×10⁻⁶ cm/s; Papp at 16 h, 10 μM ([3]; pH 6.5, PAMPA Permeability Class pH 6.5, donor pH 6.5, 10 µM): < 5 ×10⁻⁶ cm/s; recovery at 16 h, 10 µM ([3]; pH 7.4): 135%; Papp at 16 h, 10 μM ([3]; pH 7.4, PAMPA Papp pH 7.4, donor pH 7.4, 10 µM): < 0.3 ×10⁻⁶ cm/s; Papp at 16 h, 10 μM ([3]; pH 7.4, PAMPA Permeability Class pH 7.4, donor pH 7.4, 10 µM): < 5 ×10⁻⁶ cm/s
